Laboratory results reported in ChEMBL document CHEMBL5303765, “Data for DCP probe BAY-7081” (2023).

How the values were obtained:
[1] = molecular target: Aurora kinase B (Homo sapiens) (UniProt Q96GD4); experiment: AURKB SGC Tm panel (DSF); settings: for ΔTm: Compound concentration 10.0 uM
[2] = molecular target: Cyclin-dependent kinase-like 1 (Homo sapiens) (UniProt Q00532); experiment: CDKL1 SGC Tm panel (DSF); settings: for ΔTm: Compound concentration 10.0 uM
[3] = molecular target: T1, Ephrin type-B receptor 1 (Homo sapiens) (UniProt P54762); experiment: EPHB1 SGC Tm panel (DSF); settings: for ΔTm: Compound concentration 10.0 uM
T1 sequence (whole entry): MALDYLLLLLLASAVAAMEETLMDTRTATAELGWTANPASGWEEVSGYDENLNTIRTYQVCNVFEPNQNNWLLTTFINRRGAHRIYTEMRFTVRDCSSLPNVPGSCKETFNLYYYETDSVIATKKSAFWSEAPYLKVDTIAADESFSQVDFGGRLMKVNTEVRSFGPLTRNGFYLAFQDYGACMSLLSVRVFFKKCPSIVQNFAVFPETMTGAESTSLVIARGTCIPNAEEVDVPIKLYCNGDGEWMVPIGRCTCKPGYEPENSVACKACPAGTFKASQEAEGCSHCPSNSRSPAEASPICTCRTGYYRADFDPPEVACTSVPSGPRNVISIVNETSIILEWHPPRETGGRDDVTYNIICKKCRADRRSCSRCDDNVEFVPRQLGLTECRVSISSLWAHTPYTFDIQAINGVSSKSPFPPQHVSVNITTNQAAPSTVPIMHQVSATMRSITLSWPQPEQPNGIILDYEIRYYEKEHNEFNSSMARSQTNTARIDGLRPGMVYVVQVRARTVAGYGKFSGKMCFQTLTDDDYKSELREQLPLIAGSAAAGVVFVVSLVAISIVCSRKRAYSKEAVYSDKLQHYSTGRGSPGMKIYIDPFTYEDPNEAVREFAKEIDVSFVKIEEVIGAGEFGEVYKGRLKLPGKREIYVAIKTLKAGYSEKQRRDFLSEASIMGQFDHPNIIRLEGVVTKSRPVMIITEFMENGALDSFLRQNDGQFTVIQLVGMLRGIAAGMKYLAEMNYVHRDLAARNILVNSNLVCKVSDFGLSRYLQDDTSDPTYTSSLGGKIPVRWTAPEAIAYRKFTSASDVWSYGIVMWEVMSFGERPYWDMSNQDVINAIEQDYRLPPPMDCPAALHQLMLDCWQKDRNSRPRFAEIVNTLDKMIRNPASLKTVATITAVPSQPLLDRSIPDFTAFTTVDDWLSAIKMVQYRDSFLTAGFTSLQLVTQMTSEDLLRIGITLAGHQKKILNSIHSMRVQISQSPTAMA

[4] = molecular target: Vascular endothelial growth factor receptor 1 (Homo sapiens) (UniProt P17948); experiment: FLT1 SGC Tm panel (DSF); settings: for ΔTm: Compound concentration 10.0 uM
[5] = molecular target: Mitogen-activated protein kinase 14 (Homo sapiens) (UniProt Q16539); experiment: MAPK14 SGC Tm panel (DSF); settings: for ΔTm: Compound concentration 10.0 uM
[6] = molecular target: T2, MAP/microtubule affinity-regulating kinase 4 (Homo sapiens) (UniProt Q96L34); experiment: MARK4 SGC Tm panel (DSF); settings: for ΔTm: Compound concentration 10.0 uM
T2 sequence (whole entry): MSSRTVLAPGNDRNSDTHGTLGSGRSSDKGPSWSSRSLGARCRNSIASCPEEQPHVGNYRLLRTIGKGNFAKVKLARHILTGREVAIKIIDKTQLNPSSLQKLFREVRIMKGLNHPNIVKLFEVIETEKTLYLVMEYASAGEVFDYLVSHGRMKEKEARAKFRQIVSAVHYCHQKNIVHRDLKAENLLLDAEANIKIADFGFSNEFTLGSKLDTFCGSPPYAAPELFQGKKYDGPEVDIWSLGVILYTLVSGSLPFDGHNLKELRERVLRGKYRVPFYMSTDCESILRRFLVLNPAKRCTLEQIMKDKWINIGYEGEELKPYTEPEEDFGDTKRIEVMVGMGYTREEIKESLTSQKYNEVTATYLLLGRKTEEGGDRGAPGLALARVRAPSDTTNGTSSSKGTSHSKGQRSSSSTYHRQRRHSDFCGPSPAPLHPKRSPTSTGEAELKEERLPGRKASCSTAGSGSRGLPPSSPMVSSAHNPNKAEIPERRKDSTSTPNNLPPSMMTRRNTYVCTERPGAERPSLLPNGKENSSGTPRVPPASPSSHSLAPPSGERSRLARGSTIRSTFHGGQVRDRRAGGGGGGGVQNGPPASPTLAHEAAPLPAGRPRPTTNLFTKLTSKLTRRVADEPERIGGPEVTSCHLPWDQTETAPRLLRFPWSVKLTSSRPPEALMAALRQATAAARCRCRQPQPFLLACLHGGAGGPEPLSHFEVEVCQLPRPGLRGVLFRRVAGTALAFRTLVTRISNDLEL

[7] = molecular target: Serine/threonine-protein kinase pim-1 (Homo sapiens) (UniProt P11309); experiment: PIM1 SGC Tm panel (DSF); settings: for ΔTm: Compound concentration 10.0 uM
[8] = molecular target: STE20-like serine/threonine-protein kinase (Homo sapiens) (UniProt Q9H2G2); experiment: SLK SGC Tm panel (DSF); settings: for ΔTm: Compound concentration 10.0 uM
[9] = molecular target: Serine/threonine-protein kinase WNK1 (Homo sapiens) (UniProt Q9H4A3); experiment: WNK1 SGC Tm panel (DSF); settings: for ΔTm: Compound concentration 10.0 uM
[10] = molecular target: 5-hydroxytryptamine receptor 1D (Homo sapiens) (UniProt P28221); settings: Compound concentration 10.0 uM
[11] = molecular target: T3, Muscarinic acetylcholine receptor M4 (Homo sapiens) (UniProt P08173); settings: Compound concentration 10.0 uM
T3 sequence (whole entry): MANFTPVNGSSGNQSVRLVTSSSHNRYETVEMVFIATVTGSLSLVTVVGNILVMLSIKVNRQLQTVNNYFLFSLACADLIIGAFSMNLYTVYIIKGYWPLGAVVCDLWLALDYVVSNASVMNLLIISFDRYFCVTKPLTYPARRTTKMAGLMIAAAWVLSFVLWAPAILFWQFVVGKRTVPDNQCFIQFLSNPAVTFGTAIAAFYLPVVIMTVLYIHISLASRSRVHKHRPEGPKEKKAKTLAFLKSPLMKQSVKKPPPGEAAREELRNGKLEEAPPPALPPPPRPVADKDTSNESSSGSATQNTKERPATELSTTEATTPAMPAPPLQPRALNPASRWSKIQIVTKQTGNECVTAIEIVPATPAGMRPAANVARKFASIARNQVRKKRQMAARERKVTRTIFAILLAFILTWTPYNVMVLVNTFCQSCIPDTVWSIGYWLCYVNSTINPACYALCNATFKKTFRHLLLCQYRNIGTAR

Chain of Vascular endothelial growth factor receptor 1 (Homo sapiens) (P17948 whole entry): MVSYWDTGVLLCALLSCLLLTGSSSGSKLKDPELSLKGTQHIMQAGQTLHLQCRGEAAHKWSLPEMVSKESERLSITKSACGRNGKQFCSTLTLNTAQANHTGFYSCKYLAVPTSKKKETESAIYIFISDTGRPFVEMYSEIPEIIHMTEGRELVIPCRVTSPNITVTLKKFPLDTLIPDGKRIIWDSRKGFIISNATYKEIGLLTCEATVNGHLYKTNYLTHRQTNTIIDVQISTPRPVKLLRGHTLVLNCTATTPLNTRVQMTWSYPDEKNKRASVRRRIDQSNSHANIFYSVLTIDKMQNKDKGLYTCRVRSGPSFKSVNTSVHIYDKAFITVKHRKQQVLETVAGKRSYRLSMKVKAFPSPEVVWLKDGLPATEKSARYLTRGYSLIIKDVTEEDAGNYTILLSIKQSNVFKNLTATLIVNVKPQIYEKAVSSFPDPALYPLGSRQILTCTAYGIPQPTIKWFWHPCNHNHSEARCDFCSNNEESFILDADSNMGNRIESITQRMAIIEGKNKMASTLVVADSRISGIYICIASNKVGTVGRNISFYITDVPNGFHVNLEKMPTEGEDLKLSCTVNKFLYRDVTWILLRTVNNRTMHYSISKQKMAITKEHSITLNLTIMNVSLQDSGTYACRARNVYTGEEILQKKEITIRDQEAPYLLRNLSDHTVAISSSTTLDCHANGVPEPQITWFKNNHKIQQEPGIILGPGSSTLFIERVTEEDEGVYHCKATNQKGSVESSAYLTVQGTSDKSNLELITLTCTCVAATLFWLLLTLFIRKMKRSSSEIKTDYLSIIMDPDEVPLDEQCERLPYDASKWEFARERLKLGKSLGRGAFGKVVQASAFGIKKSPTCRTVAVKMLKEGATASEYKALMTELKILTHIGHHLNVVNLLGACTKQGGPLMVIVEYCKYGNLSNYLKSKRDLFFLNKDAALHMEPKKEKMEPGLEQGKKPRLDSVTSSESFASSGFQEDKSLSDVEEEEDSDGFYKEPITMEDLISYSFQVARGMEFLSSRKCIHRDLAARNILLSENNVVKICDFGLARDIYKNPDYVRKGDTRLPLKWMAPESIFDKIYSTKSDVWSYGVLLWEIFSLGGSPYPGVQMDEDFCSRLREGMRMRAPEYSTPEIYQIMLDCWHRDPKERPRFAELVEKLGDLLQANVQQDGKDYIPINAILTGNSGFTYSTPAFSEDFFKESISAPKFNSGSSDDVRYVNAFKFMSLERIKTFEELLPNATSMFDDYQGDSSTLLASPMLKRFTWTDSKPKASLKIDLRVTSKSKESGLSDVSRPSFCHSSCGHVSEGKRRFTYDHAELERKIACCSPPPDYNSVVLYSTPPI
Chain of STE20-like serine/threonine-protein kinase (Homo sapiens) (Q9H2G2 whole entry, looked up): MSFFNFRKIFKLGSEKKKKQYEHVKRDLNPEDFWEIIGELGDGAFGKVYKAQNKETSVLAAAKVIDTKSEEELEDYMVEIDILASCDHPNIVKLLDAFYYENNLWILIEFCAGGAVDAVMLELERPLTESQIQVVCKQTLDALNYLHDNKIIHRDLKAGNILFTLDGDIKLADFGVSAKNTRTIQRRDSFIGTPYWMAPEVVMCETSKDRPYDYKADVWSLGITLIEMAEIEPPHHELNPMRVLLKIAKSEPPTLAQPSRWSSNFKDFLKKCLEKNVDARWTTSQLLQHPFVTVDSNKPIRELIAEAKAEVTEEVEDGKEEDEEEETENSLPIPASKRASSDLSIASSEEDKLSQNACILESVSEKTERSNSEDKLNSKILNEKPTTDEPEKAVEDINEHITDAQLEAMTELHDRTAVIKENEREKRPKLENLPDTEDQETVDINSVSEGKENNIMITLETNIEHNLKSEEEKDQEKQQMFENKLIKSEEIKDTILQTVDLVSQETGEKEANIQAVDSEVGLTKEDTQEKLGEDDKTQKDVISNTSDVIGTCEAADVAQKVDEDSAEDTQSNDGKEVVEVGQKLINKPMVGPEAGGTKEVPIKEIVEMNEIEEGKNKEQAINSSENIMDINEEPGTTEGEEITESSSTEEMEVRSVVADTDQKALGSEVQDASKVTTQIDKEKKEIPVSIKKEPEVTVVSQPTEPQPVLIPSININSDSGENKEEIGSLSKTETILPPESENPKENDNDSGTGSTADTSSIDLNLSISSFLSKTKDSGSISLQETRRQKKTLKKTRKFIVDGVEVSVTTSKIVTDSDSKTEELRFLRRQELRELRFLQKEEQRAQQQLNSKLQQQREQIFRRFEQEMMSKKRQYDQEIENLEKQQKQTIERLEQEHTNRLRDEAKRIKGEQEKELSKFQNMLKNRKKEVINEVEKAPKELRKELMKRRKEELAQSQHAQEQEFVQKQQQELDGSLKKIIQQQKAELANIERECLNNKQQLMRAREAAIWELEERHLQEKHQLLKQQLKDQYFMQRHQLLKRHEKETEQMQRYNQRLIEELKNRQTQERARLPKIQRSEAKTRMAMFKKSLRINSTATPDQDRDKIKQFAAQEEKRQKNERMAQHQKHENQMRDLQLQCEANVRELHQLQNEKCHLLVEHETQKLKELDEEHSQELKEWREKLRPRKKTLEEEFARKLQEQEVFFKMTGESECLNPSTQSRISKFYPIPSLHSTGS
Chain of Aurora kinase B (Homo sapiens) (Q96GD4 whole entry): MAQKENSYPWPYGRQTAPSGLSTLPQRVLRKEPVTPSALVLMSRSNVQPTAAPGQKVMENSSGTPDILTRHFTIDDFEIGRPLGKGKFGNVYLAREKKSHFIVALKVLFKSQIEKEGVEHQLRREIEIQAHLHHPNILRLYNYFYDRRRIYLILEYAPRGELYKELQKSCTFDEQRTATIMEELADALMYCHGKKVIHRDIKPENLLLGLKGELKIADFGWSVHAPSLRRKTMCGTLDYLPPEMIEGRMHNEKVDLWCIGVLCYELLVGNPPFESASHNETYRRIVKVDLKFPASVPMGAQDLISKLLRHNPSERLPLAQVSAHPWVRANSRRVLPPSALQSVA
Chain of Cyclin-dependent kinase-like 1 (Homo sapiens) (Q00532 whole entry): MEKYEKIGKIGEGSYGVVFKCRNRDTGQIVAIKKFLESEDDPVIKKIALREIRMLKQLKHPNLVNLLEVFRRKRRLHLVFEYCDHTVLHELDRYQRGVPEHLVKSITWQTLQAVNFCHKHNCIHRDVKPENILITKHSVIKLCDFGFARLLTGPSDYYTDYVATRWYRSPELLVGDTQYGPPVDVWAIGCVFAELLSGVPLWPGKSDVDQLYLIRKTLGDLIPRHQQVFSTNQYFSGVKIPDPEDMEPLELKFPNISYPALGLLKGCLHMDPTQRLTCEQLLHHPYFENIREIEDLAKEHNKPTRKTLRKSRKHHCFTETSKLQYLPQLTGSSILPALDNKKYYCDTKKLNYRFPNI
Chain of Serine/threonine-protein kinase pim-1 (Homo sapiens) (P11309 whole entry, looked up): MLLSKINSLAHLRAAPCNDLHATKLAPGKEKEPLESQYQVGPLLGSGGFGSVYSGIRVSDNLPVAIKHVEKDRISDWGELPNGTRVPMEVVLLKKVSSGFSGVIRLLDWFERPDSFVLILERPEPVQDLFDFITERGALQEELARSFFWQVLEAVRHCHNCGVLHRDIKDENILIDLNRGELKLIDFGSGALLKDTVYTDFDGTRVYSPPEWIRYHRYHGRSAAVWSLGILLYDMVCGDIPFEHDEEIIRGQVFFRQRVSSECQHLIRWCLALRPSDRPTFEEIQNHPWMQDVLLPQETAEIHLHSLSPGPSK
Chain of 5-hydroxytryptamine receptor 1D (Homo sapiens) (P28221 whole entry): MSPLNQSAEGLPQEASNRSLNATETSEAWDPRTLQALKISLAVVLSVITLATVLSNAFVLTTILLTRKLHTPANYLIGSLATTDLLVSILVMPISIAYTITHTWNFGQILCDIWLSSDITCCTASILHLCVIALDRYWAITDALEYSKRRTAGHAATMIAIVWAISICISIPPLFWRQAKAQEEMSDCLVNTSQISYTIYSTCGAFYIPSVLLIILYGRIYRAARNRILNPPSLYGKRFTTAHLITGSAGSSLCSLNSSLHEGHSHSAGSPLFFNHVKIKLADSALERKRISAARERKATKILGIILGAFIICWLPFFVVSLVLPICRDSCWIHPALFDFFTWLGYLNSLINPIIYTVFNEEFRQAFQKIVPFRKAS
Chain of Mitogen-activated protein kinase 14 (Homo sapiens) (Q16539 whole entry): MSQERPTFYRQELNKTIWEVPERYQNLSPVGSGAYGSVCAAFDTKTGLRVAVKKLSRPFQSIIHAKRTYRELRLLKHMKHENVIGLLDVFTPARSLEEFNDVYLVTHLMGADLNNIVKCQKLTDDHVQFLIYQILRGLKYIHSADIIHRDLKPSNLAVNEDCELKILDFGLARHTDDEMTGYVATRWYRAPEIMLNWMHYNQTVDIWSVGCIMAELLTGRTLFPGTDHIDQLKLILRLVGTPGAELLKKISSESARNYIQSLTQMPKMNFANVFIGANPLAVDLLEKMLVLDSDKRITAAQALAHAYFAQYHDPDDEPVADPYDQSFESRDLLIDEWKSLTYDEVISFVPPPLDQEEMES

Structure (SMILES)	delta Tm Staurosporine positive control [1]	ΔTm [1]	delta Tm Staurosporine positive control [2]	ΔTm [2]	delta Tm Staurosporine positive control [3]	ΔTm [3]	delta Tm Staurosporine positive control [4]	ΔTm [4]	delta Tm Staurosporine positive control [5]	ΔTm [5]	delta Tm Staurosporine positive control [6]	ΔTm [6]	delta Tm Staurosporine positive control [7]	ΔTm [7]	delta Tm Staurosporine positive control [8]	ΔTm [8]	delta Tm Staurosporine positive control [9]	ΔTm [9]	inhibition [10] [%]	inhibition [11] [%]
CCC[C@H]1CNCc2c1[nH]c(=O)c(C#N)c2N1CCC2(CC1)CC2	14.1	-0.229	7.07	-0.0258	5.62	0.0299	13.1	-0.145	0.178	-0.473	15.9	-0.175	12.2	-0.108	15.4	-0.579	2.2	-0.456	25	-3.14
CCC[C@@H]1CNCc2c1[nH]c(=O)c(C#N)c2N1CCC2(CC1)CC2	14.1	-0.199	7.07	-0.229	5.62	0.00973	13.1	-0.163	0.178	-0.46	15.9	0.243	12.2	-0.124	15.4	-1.06	2.2	-0.301	35	-5.05
